Experimental data: PubChem BioAssay (NCI)
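Protocol summary: plate cells (96-well), add compound at 5 concentrations, incubate 48 h, interpolate endpoints linearly. At the TGI there is no net growth.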

Experiments:
Assay in all cases: NCI-60 cell line screen, 48 h
[1] = test system: ACHN renal
[2] = test system: OVCAR-3 ovarian
[3] = test system: CCRF-CEM leukemia
[4] = test system: A498 renal
[5] = test system: SK-OV-3 ovarian
[6] = test system: UO-31 renal
[7] = test system: HCT-15 colon
[8] = test system: SNB-75 CNS
[9] = test system: HOP-92 NSCLC
[10] = test system: MALME-3M melanoma
[11] = test system: SK-MEL-2 melanoma
[12] = test system: NCI-H522 lung
[13] = test system: BT-549 breast
[14] = test system: SN12C renal
[15] = test system: NCI-H23 lung
[16] = test system: TK-10 renal
[17] = test system: IGROV1 ovarian
[18] = test system: KM12 colon
[19] = test system: A549 NSCLC
[20] = test system: SF-295 CNS
[21] = test system: RPMI-8226 leukemia
[22] = test system: SNB-19 CNS
[23] = test system: SK-MEL-28 melanoma
[24] = test system: PC-3 prostate
[25] = test system: NCI-H460 lung
[26] = test system: M14 melanoma
[27] = test system: NCI/ADR-RES ovarian
[28] = test system: T-47D breast
[29] = test system: NCI-H226 lung
[30] = test system: OVCAR-8 ovarian
[31] = test system: RXF 393 renal
[32] = test system: HOP-62 NSCLC
[33] = test system: DU-145 prostate
[34] = test system: MCF7 breast
[35] = test system: LOX IMVI melanoma
[36] = test system: HCT-116 colon
[37] = test system: UACC-257 melanoma
[38] = test system: HCC-2998 colon
[39] = test system: OVCAR-5 ovarian
[40] = test system: COLO 205 colon
[41] = test system: K-562 leukemia
[42] = test system: SF-268 CNS
[43] = test system: HL-60(TB) leukemia
[44] = test system: MDA-MB-231 breast
[45] = test system: HS 578T breast
[46] = test system: SK-MEL-5 melanoma
[47] = test system: SR leukemia
[48] = test system: MDA-N
[49] = test system: 786-0 renal
[50] = test system: OVCAR-4 ovarian
[51] = test system: SW-620 colon
[52] = test system: SF-539 CNS
[53] = test system: MDA-MB-435
[54] = test system: CAKI-1 renal
[55] = test system: EKVX NSCLC
[56] = test system: U251 CNS
[57] = test system: UACC-62 melanoma
[58] = test system: HT29 colon
[59] = test system: MOLT-4 leukemia

CCc1nc(N)nc(N)c1-c1ccc2nn(-c3ccccc3)[n+]([O-])c2c1
TGI [1]: 17.3 µM | TGI [2]: 28.3 µM | TGI [3]: 36.8 µM | TGI [4]: 29.2 µM | TGI [5]: > 69.3 µM | TGI [6]: 35.2 µM | TGI [7]: 18.8 µM | TGI [8]: 53.1 µM | TGI [9]: 27 µM | TGI [10]: 22.7 µM | TGI [11]: 28.7 µM | TGI [12]: 11.6 µM | TGI [13]: 26.3 µM | TGI [14]: 24.4 µM | TGI [15]: 18.2 µM | TGI [16]: 55.6 µM | TGI [17]: 23.2 µM | TGI [18]: 41 µM | TGI [19]: 27.8 µM | TGI [20]: 63.5 µM | TGI [21]: 35.7 µM | TGI [22]: > 70.4 µM | TGI [23]: 25.1 µM | TGI [24]: 23.4 µM | TGI [25]: 14.8 µM | TGI [26]: 18.8 µM | TGI [27]: 38.8 µM | TGI [28]: 31.7 µM | TGI [29]: 48.7 µM | TGI [30]: 26.8 µM | TGI [31]: 25 µM | TGI [32]: 25.3 µM | TGI [33]: 20.1 µM | TGI [34]: 20.8 µM | TGI [35]: 17.7 µM | TGI [36]: 15.5 µM | TGI [37]: 24.2 µM | TGI [38]: 20.5 µM | TGI [39]: 44.3 µM | TGI [40]: 22.3 µM | TGI [41]: 22.9 µM | TGI [42]: 31.5 µM | TGI [43]: 27.4 µM | TGI [44]: 25.5 µM | TGI [45]: 52.3 µM | TGI [46]: 19.6 µM | TGI [47]: 34.1 µM | TGI [48]: 18.8 µM | TGI [49]: 18.9 µM | TGI [50]: 56.6 µM | TGI [51]: 18.3 µM | TGI [52]: 18.2 µM | TGI [53]: 19.5 µM | TGI [54]: 18.2 µM | TGI [55]: 35.1 µM | TGI [56]: 22.1 µM | TGI [57]: 17.5 µM | TGI [58]: 20.2 µM | TGI [59]: 32.5 µM

C=C(C)C(CC=C(C)C)CC12CC(CC=C(C)C)C(C)(C)C(CC=C(C)C)(C(=O)C(Cc3ccc(O)c(O)c3)=C1O)C2=O (configuration not stated)
TGI [1]: > 100 µM | TGI [2]: > 100 µM | TGI [3]: > 100 µM | TGI [4]: > 100 µM | TGI [5]: > 100 µM | TGI [6]: > 100 µM | TGI [7]: > 100 µM | TGI [8]: > 100 µM | TGI [9]: > 100 µM | TGI [10]: > 100 µM | TGI [12]: > 100 µM | TGI [13]: > 100 µM | TGI [15]: > 100 µM | TGI [16]: > 100 µM | TGI [17]: > 100 µM | TGI [18]: > 100 µM | TGI [19]: > 100 µM | TGI [20]: > 100 µM | TGI [21]: > 100 µM | TGI [22]: > 100 µM | TGI [23]: > 100 µM | TGI [24]: > 100 µM | TGI [25]: > 100 µM | TGI [26]: > 100 µM | TGI [27]: > 100 µM | TGI [28]: > 100 µM | TGI [29]: > 100 µM | TGI [30]: > 100 µM | TGI [31]: > 100 µM | TGI [32]: > 100 µM | TGI [33]: > 100 µM | TGI [34]: > 100 µM | TGI [35]: > 100 µM | TGI [36]: > 100 µM | TGI [37]: > 100 µM | TGI [38]: > 100 µM | TGI [39]: > 100 µM | TGI [40]: > 100 µM | TGI [41]: > 100 µM | TGI [42]: > 100 µM | TGI [43]: > 100 µM | TGI [44]: > 100 µM | TGI [45]: > 100 µM | TGI [46]: > 100 µM | TGI [47]: > 100 µM | TGI [48]: > 100 µM | TGI [49]: > 100 µM | TGI [50]: > 100 µM | TGI [51]: > 100 µM | TGI [52]: > 100 µM | TGI [53]: > 100 µM | TGI [54]: > 100 µM | TGI [55]: > 100 µM | TGI [56]: > 100 µM | TGI [57]: > 100 µM | TGI [58]: > 100 µM | TGI [59]: > 100 µM

O=Cc1ccc2c(c1)CC1(C2)Cc2ccc3c(c2C1)CCC3 (configuration not stated)
TGI [1]: > 100 µM | TGI [2]: 19.5 µM | TGI [3]: 21.1 µM | TGI [4]: > 61 µM | TGI [5]: 45.1 µM | TGI [6]: 25 µM | TGI [7]: 34.4 µM | TGI [8]: 28.9 µM | TGI [9]: > 48.3 µM | TGI [10]: 21.8 µM | TGI [11]: 14 µM | TGI [12]: > 83.6 µM | TGI [13]: 18.6 µM | TGI [14]: 23.7 µM | TGI [15]: 33.6 µM | TGI [16]: 40.5 µM | TGI [17]: 41.3 µM | TGI [18]: 33.1 µM | TGI [19]: > 100 µM | TGI [20]: 19.5 µM | TGI [21]: 27.9 µM | TGI [22]: 21 µM | TGI [23]: 29.5 µM | TGI [24]: 18.2 µM | TGI [25]: 38.7 µM | TGI [26]: 21.3 µM | TGI [27]: 27.8 µM | TGI [28]: > 85.3 µM | TGI [29]: 37.8 µM | TGI [30]: 29.8 µM | TGI [31]: 28.5 µM | TGI [32]: 27.7 µM | TGI [33]: > 69 µM | TGI [34]: 22.8 µM | TGI [35]: 15.9 µM | TGI [36]: 19.1 µM | TGI [37]: 33 µM | TGI [38]: > 60.3 µM | TGI [39]: > 69.2 µM | TGI [40]: 43.7 µM | TGI [41]: 25.6 µM | TGI [42]: 41.9 µM | TGI [43]: > 26.9 µM | TGI [44]: 14.2 µM | TGI [45]: 21.5 µM | TGI [46]: 15.9 µM | TGI [47]: 18.3 µM | TGI [48]: 4.85 µM | TGI [49]: 28.3 µM | TGI [50]: 16.9 µM | TGI [51]: 15.2 µM | TGI [52]: 26.1 µM | TGI [53]: 7.4 µM | TGI [54]: 46.8 µM | TGI [55]: > 59.2 µM | TGI [56]: 22.7 µM | TGI [57]: 18.8 µM | TGI [58]: 36.8 µM | TGI [59]: 31.9 µM

CCOC(CCNCC(OCC)OCC)OCC
TGI [1]: > 10 µM | TGI [2]: > 10 µM | TGI [3]: > 10 µM | TGI [4]: > 10 µM | TGI [5]: > 10 µM | TGI [7]: > 10 µM | TGI [8]: > 10 µM | TGI [9]: > 10 µM | TGI [10]: > 10 µM | TGI [11]: > 10 µM | TGI [12]: > 10 µM | TGI [13]: > 10 µM | TGI [14]: > 10 µM | TGI [15]: > 10 µM | TGI [16]: > 10 µM | TGI [17]: > 10 µM | TGI [18]: > 10 µM | TGI [19]: > 10 µM | TGI [20]: > 10 µM | TGI [21]: > 10 µM | TGI [22]: > 10 µM | TGI [23]: > 10 µM | TGI [24]: > 10 µM | TGI [25]: > 10 µM | TGI [26]: > 10 µM | TGI [27]: > 10 µM | TGI [28]: > 10 µM | TGI [29]: > 10 µM | TGI [30]: > 10 µM | TGI [31]: > 10 µM | TGI [32]: > 10 µM | TGI [33]: > 10 µM | TGI [34]: > 10 µM | TGI [35]: > 10 µM | TGI [36]: > 10 µM | TGI [37]: > 10 µM | TGI [38]: > 10 µM | TGI [39]: > 10 µM | TGI [40]: > 10 µM | TGI [41]: > 10 µM | TGI [42]: > 10 µM | TGI [43]: > 10 µM | TGI [44]: > 10 µM | TGI [45]: > 10 µM | TGI [46]: > 10 µM | TGI [47]: > 10 µM | TGI [48]: > 10 µM | TGI [49]: > 10 µM | TGI [50]: > 10 µM | TGI [52]: > 10 µM | TGI [53]: > 10 µM | TGI [54]: > 10 µM | TGI [55]: > 10 µM | TGI [56]: > 10 µM | TGI [57]: > 10 µM | TGI [58]: > 10 µM | TGI [59]: > 10 µM
